# Measurements taken from publication PMC7296828 (Biochemistry, 2020).
# Biological target: T1, Ribonuclease 6 (RNase 6, RNase K6) (Homo sapiens, UniProt Q93091)
# T1 sequence (Q93091 24-150): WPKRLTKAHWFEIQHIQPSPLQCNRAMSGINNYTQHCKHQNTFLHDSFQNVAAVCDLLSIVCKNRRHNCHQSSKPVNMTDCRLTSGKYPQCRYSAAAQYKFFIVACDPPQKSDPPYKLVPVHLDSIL
# Assay: X-ray crystal structure
# Type: binding
smiles,measurement,value
Nc1ncnc2c1ncn2[C@@H]1O[C@H](COP(=O)(O)O)[C@@H](O)[C@H]1O [5’-AMP],Kd,154 ± 5 µM
